# Results reported in PMC4841536, “Characterization of the Anti-HCV Activities of the New Cyclophilin Inhibitor STG-175” (PLoS ONE, 2016).
# pEC50: −log10 of the molar value.
# Columns and labels:
# [1] = system: NS5Bi-resistant S282T NS5B Con1 GT1b replicon; test: Electroporated Con1 RNA replication in Huh7.5.1 cells (RT-qPCR), S282T NS5B; format: cell-based; details: Hepatitis C virus, Huh-7.5.1, 192 h, read-out: EC50 S282T NS5B
# Text: The GT1b subgenomic firefly luciferase reporter replicon pFK-I389/NS3–3 was provided by R. Bartenschlager. The GT1B subgenomic NS3, NS5A and NS5B mutants were created via homologous recombination using the In-Fusion HD Cloning kit (Clontech) as we described previously. […] The in vitro transcription of wild-type and mutant Con1 RNA was accomplished using the T7 MEGAscript kit (Ambion) by following the manufacturer’s instructions. In vitro-transcribed RNAs were introduced into Huh7.5.1 cells by electroporation. Trypsinized cells were washed twice and resuspended in phosphate-buffered saline (PBS) (calcium-free and magnesium-free) at 1x 10^7 cells per ml. Ten micrograms of RNA for each mutant was mixed with 0.4 mL of cells in a 4-mm cuvette, and a Bio-Rad Gene Pulser system was used to deliver a single pulse at 0.27 kV, 100 ohms, and 960 μF. […] RNA transfection efficiency and HCV subgenomic replication were assessed by reverse transcription-quantitative PCR (RT-qPCR) and presented as genome equivalents (GE) per microgram of total RNA as described previously. We measured by RT-qPCR the replication of wild-type, STG-175-, NS5Ai-, NS3i- and NS5Bi-resistant mutants in the presence of increasing concentrations of SGT-175, daclatasvir, telaprevir, boceprevir and sofosbuvir over a period of 8 days.
# Fig 5 Cross-resistance analyses. […] Data are expressed as log of GE/μg of total RNA. […]
# [2] = system: HCV (JFH-1) in Huh7.5.1 cells; test: Mono-infection, HCV core ELISA; format: cell-based, hepatitis C virus; details: both 0.5 and 5 μM, added together with virus, 12 days
# Text: For mono-infections: a) human hepatoma Huh7.5.1 cells were infected with HCV (JFH-1) and viral replication was quantified by HCV core ELISA (Ortho HCV antigen ELISA kit; Ortho Clinical Diagnostics, Waco Chemicals, Inc. or HCV Core ELISA, XpressBio); b) sodium-taurocholate co-transporting polypeptide (NTCP)-positive Huh7 cells were infected with hepatitis B virus (HBV) AD38 (produced from HepAD38 cells) and viral replication was quantified by HBV HBeAg ELISA; and c) human (peripheral blood monocytic cells (PBMCs) were infected with HIV-1 (JR-CSF) and viral replication was quantified by HIV-1 capsid/p24 ELISA. PBMCs were isolated as described previously. The Scripps Research Institute Normal Blood Donor Service (TSRI NBDS) provides TSRI investigators who have Human Subjects Committee-approved protocols with a source of normal blood for their research. Donors are assured of a controlled clinical setting for their blood to be drawn by licensed phlebotomists, and investigators are assured that the donors whose specimens they obtain through the service have been screened upon entry into the program and annually thereafter for a CBC, Hepatitis B and C and HIV-1. Hemoglobin determinations at every donation protect the donor from phlebotomy-induced anemia. […]
smiles,measurement,setting,value
CC=CCC(C)C(O)C1C(=O)NC(CC)C(=O)N(C)C(CSCCCCO)C(=O)N(C)C(CC(C)(C)O)C(=O)NC(C(C)C)C(=O)N(C)C(CC(C)C)C(=O)NC(C)C(=O)NC(C)C(=O)N(C)C(CC(C)C)C(=O)N(C)C(CC(C)C)C(=O)N(C)C(C(C)C)C(=O)N1C (centres unmarked) [STG-175],pEC50,[1],8.27
same,HCV infection (HCV core ELISA),[2],totally blocked
